The experiment has as its target human PD-L1 / Human PD-1 (Homo sapiens (Human), UniProt Q9NZQ7). In words: Enzyme-Linked Immunosorbent Assay (ELISA), PD-1/PD-L1 binding. To be noted: plate-coated human PD-L1, biotinylated human PD-1. As for the experimental part: Biological Example: Enzyme-Linked Immunosorbent Assay—ELISA
96 Well plates were coated with […] of human PD-L1 (obtained from R&D) in PBS overnight at 4° C. The wells were then blocked with 2% BSA in PBS (W/V) with 0.05% TWEEN-20 for 1 hour at 37° C. The plates were washed 3 times with PBS/0.05% TWEEN-20 and the compounds were serial diluted (1:5) in dilution medium and added to the ELISA plates. Human PD-1 and biotin 0.3 μg/mL (ACRO Biosystems) were added and incubated for 1 hour at 37° C. then washed 3 times with PBS/0.05% TWEEN-20. A second block was performed with 2% BSA in PBS (W/V)/0.05% TWEEN-20 for 10 min at 37° C. and was washed 3 times with PBS/0.05% TWEEN-20. Streptavidin-HRP was added for 1 hour at 37° C. then washed 3 times with PBS/0.05% TWEEN-20. TMB substrate was added and reacted for 20 min at 37° C. A stop solution (2 N aqueous H2SO4) was added. The absorbance was read at 450 nm using a micro-plate spectrophotometer.

Sequence of human PD-L1 / Human PD-1 (Q9NZQ7 19-239): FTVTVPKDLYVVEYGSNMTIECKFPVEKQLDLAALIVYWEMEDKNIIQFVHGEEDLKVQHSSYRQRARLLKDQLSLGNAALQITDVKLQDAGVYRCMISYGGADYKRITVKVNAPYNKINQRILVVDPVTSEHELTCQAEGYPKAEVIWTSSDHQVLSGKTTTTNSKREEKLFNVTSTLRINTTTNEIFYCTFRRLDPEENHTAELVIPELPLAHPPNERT

As to `Cc1c(OCCCN2CCC(O)CC2)cccc1-c1cccc2c1CCC2Oc1cc(OCc2cc(C#N)cc(C#N)c2)c(CN[C@@H](CO)C(=O)O)cc1Cl` (some centres unmarked), the IC50 was < 5 nM.

Regarding `Cc1c(OCCCN2CCC(O)CC2)cccc1-c1cccc2c1CCC2Oc1cc(OCc2cc(C#N)cc(C#N)c2)c(CN[C@@H]2CCCC[C@@H]2O)cc1Cl` (some centres unmarked), the IC50 was < 5 nM.

In the case of `Cc1c(OCCCN2CCC(O)CC2)cccc1-c1cccc2c1CC[C@@H]2Oc1cc(OCc2cncc(C#N)c2)c(CN[C@H](C(=O)O)[C@@H](C)O)cc1Cl`, the IC50 was < 5 nM.

On to `C[C@@H](O)[C@H](NCc1cc(Cl)c(O[C@H]2CCc3c(-c4cccc(OCCCN5CCC(O)CC5)c4F)cccc32)cc1OCc1cncc(C#N)c1)C(=O)O`, for which the IC50 was < 5 nM.

`CCOc1cc(O[C@H]2CCc3c(-c4cccc(OCCCN5CC[C@@H](O)C5)c4C)cccc32)c(Cl)cc1CN[C@@H]1CCCC[C@@H]1O` showed an IC50 of 5 to 500 nM.

Turning to `CCOc1cc(O[C@H]2CCc3c(-c4cccc(OCCCN5CC[C@@H](O)C5)c4C)cccc32)c(Cl)cc1CN[C@@H](CO)C(=O)OC(C)C`, the IC50 lay in the range of 5 to 500 nM.

`CCOc1cc(O[C@H]2CCc3c(-c4cccc(OCCCN5CC[C@@H](O)C5)c4C)cccc32)c(Cl)cc1CN[C@@](C)(CO)C(=O)OC(C)C`: the IC50 was 5 to 500 nM.

On to `CCOc1cc(O[C@H]2CCc3c(-c4cccc(OCCCN5CC[C@@H](O)C5)c4C)cccc32)c(Cl)cc1CN1CCCC[C@H]1C(=O)O`, for which the half-maximal inhibitory concentration (IC50) lay within 5 to 500 nM.

Turning to `Cc1c(OCCCN2CCC(O)CC2)cccc1-c1cccc2c1CC[C@@H]2Oc1cc(OCc2cncc(C#N)c2)c(CN[C@H](C(N)=O)[C@@H](C)O)cc1Cl`, the IC50 is < 5 nM.

Turning to `Cc1c(OCCCN2CCC(O)CC2)cccc1-c1cccc2c1CC[C@@H]2Oc1cc(OCc2cncc(C#N)c2)c(CN[C@@H](CO)C(N)=O)cc1Cl`, the IC50 is < 5 nM.

`Cc1c(OCCCN2CCC(O)CC2)cccc1-c1cccc2c1CC[C@@H]2Oc1cc(OCc2cncc(C#N)c2)c(CN[C@H](C(=O)NS(C)(=O)=O)[C@@H](C)O)cc1Cl`: the IC50 is < 5 nM.

Regarding `Cc1c(OCCCN2CCC(O)CC2)cccc1-c1cccc2c1CC[C@@H]2Oc1cc(OCc2cncc(C#N)c2)c(CN2CCC(O)CC2)cc1Cl`, the IC50 was < 5 nM.

For `Cc1c(OCCCN2CCC(O)CC2)cccc1-c1cccc2c1CC[C@@H]2Oc1cc(OCc2cncc(C#N)c2)c(CN2CC[C@H](O)C2)cc1Cl`, the IC50 is < 5 nM.

Consider `CCOc1cc(O[C@H]2CCc3c(-c4cccc(OCCCN5CC[C@@H](O)C5)c4C)cccc32)c(Cl)cc1CNC(CO)CO`, for which the IC50 is < 5 nM.

Regarding `CCOc1cc(O[C@H]2CCc3c(-c4cccc(OCCCN5CC[C@@H](O)C5)c4C)cccc32)c(Cl)cc1CNC(C)(CO)CO`, the IC50 is < 5 nM.

For `Cc1c(OCCCN2CCC(O)CC2)cccc1-c1cccc2c1CC[C@@H]2Oc1cc(OCc2cncc(C#N)c2)c(CN2CC[C@@H](O)C2)cc1Cl`, the IC50 was < 5 nM.

`Cc1c(OCCCN2CCC(O)CC2)cccc1-c1cccc2c1CC[C@@H]2Oc1cc(OCc2cncc(C#N)c2)c(CNCC2CCC(=O)N2)cc1Cl` (some centres unmarked): the IC50 is < 5 nM.

Regarding `Cc1c(OCCCN2CCC(O)CC2)cccc1-c1cccc2c1CC[C@@H]2Oc1cc(OCc2cncc(C#N)c2)c(CNCC(C)(C)O)cc1Cl`, the IC50 was < 5 nM.

For the compound `Cc1c(OCCCN2CCC(O)CC2)cccc1-c1cccc2c1CC[C@@H]2Oc1cc(OCc2cncc(C#N)c2)c(CN2CC(C(=O)O)C2)cc1Cl`, the IC50 was < 5 nM.

Take `Cc1c(OCCCN2CCC(O)CC2)cccc1-c1cccc2c1CC[C@@H]2Oc1cc(OCc2cncc(C#N)c2)c(CN[C@@H]2CCCC[C@H]2O)cc1Cl`: the half-maximal inhibitory concentration (IC50) was < 5 nM.

`Cc1c(OCCCN2CCC(O)CC2)cccc1-c1cccc2c1CC[C@@H]2Oc1cc(OCc2cncc(C#N)c2)c(CNC(C)(CO)CO)cc1Cl` had an IC50 of 5 to 500 nM.

On to `Cc1c(OCCCN2CCC(O)CC2)cccc1-c1cccc2c1CC[C@@H]2Oc1cc(OCc2cncc(C#N)c2)c(CN2CC(O)C2)cc1Cl`, for which the IC50 was < 5 nM.

With `Cc1c(OCCCN2CCC(O)CC2)cccc1-c1cccc2c1CC[C@@H]2Oc1cc(OCc2cncc(C#N)c2)c(CNCc2cn(C)cn2)cc1Cl`, the IC50 was < 5 nM.

In the case of `Cc1c(OCCCN2CCC(O)CC2)cccc1-c1cccc2c1CC[C@@H]2Oc1cc(OCc2cncc(C#N)c2)c(CN[C@@H]2CCC[C@H]2O)cc1Cl`, the IC50 is < 5 nM.

Take `Cc1c(OCCCN2CCC(O)CC2)cccc1-c1cccc2c1CC[C@@H]2Oc1cc(OCc2cncc(C#N)c2)c(CNC2(C(=O)O)CCC2)cc1Cl`: the IC50 is < 5 nM.

Regarding `Cc1c(OCCCN2CCC(O)CC2)cccc1-c1cccc2c1CC[C@@H]2Oc1cc(OCc2cncc(C#N)c2)c(CN[C@@H](CNC(=N)N)C(=O)O)cc1Cl`, the half-maximal inhibitory concentration (IC50) is < 5 nM.

Take `Cc1c(OCCCN2CCC(O)CC2)cccc1-c1cccc2c1CC[C@@H]2Oc1cc(OCc2cncc(C#N)c2)c(CN2CCC(C)(O)CC2)cc1Cl`: the IC50 is < 5 nM.

Take `COC(=O)C1(O)CCN(CCCOc2cccc(-c3cccc4c3CC[C@@H]4Oc3cc(OCc4cncc(C#N)c4)c(CN[C@H](C(=O)O)[C@@H](C)O)cc3Cl)c2C)C1` (some centres unmarked): the IC50 was < 5 nM.

Regarding `Cc1c(OCCCN2CC(C)(O)C2)cccc1-c1cccc2c1CC[C@@H]2Oc1cc(OCc2cncc(C#N)c2)c(CNCC2CCC(=O)N2)cc1Cl` (some centres unmarked), the IC50 was < 5 nM.

As for `Cc1c(OCCCN2C3CCC2CC(O)C3)cccc1-c1cccc2c1CC[C@@H]2Oc1cc(OCc2cncc(C#N)c2)c(CNCC2CCC(=O)N2)cc1Cl` (some centres unmarked), the IC50 is < 5 nM.

`Cc1c(OCCCN2CCC(F)CC2)cccc1-c1cccc2c1CC[C@@H]2Oc1cc(OCc2cncc(C#N)c2)c(CNCC2CCC(=O)N2)cc1Cl` (some centres unmarked): the IC50 is < 5 nM.

For the compound `Cc1c(OCCCN2CC(O)C2)cccc1-c1cccc2c1CC[C@@H]2Oc1cc(OCc2cncc(C#N)c2)c(CNCC2CCC(=O)N2)cc1Cl` (some centres unmarked), the IC50 was < 5 nM.

As for `N#Cc1cncc(COc2cc(O[C@H]3CCc4c(-c5cccc(OCCCN6CCC(O)CC6)c5Cl)cccc43)c(Cl)cc2CNCC2CCC(=O)N2)c1` (some centres unmarked), the IC50 is < 5 nM.

`C[C@@H](O)[C@H](NCc1cc(Cl)c(O[C@H]2CCc3c(-c4cccc(OCCCN5CCC(O)CC5)c4Cl)cccc32)cc1OCc1cncc(C#N)c1)C(N)=O`: the IC50 was < 5 nM.

In the case of `Cc1c(OCCCN2CCC(F)CC2)cccc1-c1cccc2c1CC[C@@H]2Oc1cc(OCc2cncc(C#N)c2)c(CN[C@H](C(N)=O)[C@@H](C)O)cc1Cl`, the IC50 was in the range of 5 to 500 nM.

Regarding `Cc1c(OCCCN2CCC(O)CC2)cccc1-c1cccc2c1C[C@@H](F)[C@@H]2Oc1cc(OCc2cncc(C#N)c2)c(CN[C@@H](CO)C(=O)O)cc1Cl`, the IC50 was < 5 nM.

As for `Cc1c(OCCCN2CCC(O)CC2)cccc1-c1cccc2c1C[C@H](F)[C@@H]2Oc1cc(OCc2cncc(C#N)c2)c(CN[C@H](C(=O)O)[C@@H](C)O)cc1Cl`, the IC50 is < 5 nM.

`Cc1c(OCCCN2CCC(O)CC2)cccc1-c1cccc2c1C[C@H](F)[C@@H]2Oc1cc(OCc2cncc(C#N)c2)c(CN[C@@](C)(CO)C(=O)O)cc1Cl`: the IC50 is < 5 nM.

For the compound `Cc1c(OCCCN2CCC(O)CC2)cccc1-c1cccc2c1C[C@H](F)[C@@H]2Oc1cc(OCc2cncc(C#N)c2)c(CN[C@@H]2CCCC[C@@H]2O)cc1Cl`, the IC50 was < 5 nM.

On to `Cc1c(OCCCN2CC[C@H](F)C2)cccc1-c1cccc2c1CC[C@@H]2Oc1cc(OCc2cncc(C#N)c2)c(CN[C@@H]2CCCC[C@@H]2O)cc1Cl`, for which the IC50 is < 5 nM.

`Cc1c(OCCCN2CC[C@@H](F)C2)cccc1-c1cccc2c1CC[C@@H]2Oc1cc(OCc2cncc(C#N)c2)c(CN[C@@H]2CCCC[C@@H]2O)cc1Cl`: the IC50 was < 5 nM.

A word on the IC50: it is the concentration at which inhibition is half-maximal. High values mean weaker potency in that assay, low ones greater potency in that assay.

These data come from patent US10919852B2, “Immunomodulator compounds” (CHEMOCENTRYX, INC., priority 2017, dated 2021).
